# In patent publication US8314255B2, “Use of phthalimide and/or sulphonamide derivatives in the treatment of diseases which require reducing the TNF- α levels and an exogenous source of nitric oxide, phthalimide derivatives, sulphonamide derivatives, and a method for obtaining a sulphonamide derivative” (priority 2007, dated 2012):
# Where “and” joins values, the source holds several entries; their conditions need not be identical. Identical values can stand only once.
# What was measured:
# [1] = tested on: Salmonella typhimurium TA100; assay: AMES test, mutagenic evaluation in Salmonella typhimurium TA100 strain with/without metabolic activation (S9); format: cell-based
# Method: The procedure was firstly developed by (MARON, D. M. and AMES, B. N. Mut. Res. v. 113, pp. 173-215, 1983)
# For this assay, Salmonella typhimurium TA100 and TA102 strains from the mutagenicity laboratory of the “Faculdade de Ciências Farmacêuticas—UNESP Araraquara” were used. Such strains have the following characteristics: (AMES, 1983)
# The positive controls are mutagenic compounds specific for each strain and test condition, with 25 μL/plate of sodium azide (1.25 μg/plate) and 100 μL of mitomycin (0.5 μg/plate) being the controls for TA100 and TA102, respectively, in the absence of metabolic activation. For assays with metabolic activation, the positive control for TA100 is 50 μL 2-antramine (1.25 μg/plate) and for TA102 it is 50 μL 2-aminofluorene (1.25 μg/plate).
# The preincubation method was used.
# In laminar flow, Salmonella typhimurium (TA100 and TA 102) strains were inoculated individually with a platinum loop, in the respective nutrient broths and maintained at 37° C., under constant stirring (160 rpm) during 14 hours, in order to achieve a density of 1 to 2×10^9 bacteria/mL.
# Different concentrations of the compounds were added into 100 μL of 0.2M phosphate buffer pH 7.4 (or 500 μL of the mixture S9 in metabolic activation assays) and incubated for 20-30 minutes at 37° C. Solutions containing the compounds had DMSO as the solvent. Thereafter, 2 mL of top agar supplemented with traces of histidine and biotin was added, homogenized and plated in glycosylated minimum medium. After solidification of the top agar, the plates were incubated for 48 hours at a 37° C. Then, the counting of the number of revertant colonies per plate was performed. All tested concentrations, positive and negative controls were run in triplicate.
# After 48 hours, the revertant colonies were counted manually, and the protoCOL Colony Counter Version 3.15.630 (1998-2001) SYNBIOSIS LTD system was used for the positive control.
# The final data obtained from the assay was analyzed using the statistical software Salanal (Salmonella Assay Analysis) version 1.0 from the Research Triangle Institute, RTP, North Carolina, USA. Such software allows the dose-response effect to be evaluated by means of analysis of variance (ANOVA-test F) computations between the measurement of the number of revertants at the different tested concentrations (doses) and the negative control, followed by a linear regression. The software model chosen for analyzing the data was Bernstein's (BERNSTEIN, L. et al. Mutat. Res. v. 97, p. 267-281, 1982). The slope of the straight line from the linear portion of the dose-response curve is also provided by this software and corresponds to the number of revertants induced per measurement unit of the analyzed sample.
# From the results, the mutagenicity ratio (MR) was computed for each analyzed dose from each compound. MR is given by the following equation:
# MR=average number of revertants per test plate (spontaneous+induced revertants) […] average number of revertants per plate of the negative control (spontaneous revertants)
# The spontaneous growing means that the number of revertants which developed on the plate, regardless of being induced or not, wherein values higher or equal to 2 are considered as a positive response (VALENT, G. V. et al. Env. Toxicol. Water Quality. v. 8, p. 371-381, 1993).
# The mutagenicity test with metabolic activation system was performed with a microsomal fraction S9 (S9 mix) prepared from a liver homogenizate from Sprague Dawley rats, previously treated with Aroclor 1254, acquired in the freeze-dried form.
# The procedure for this assay is the same, however, instead of the buffer, 500 μL of the S9 mixture should be added.
# The S9 mixture has a viability of 4 hours from preparation when put on ice. The plates are then incubated for 48 hours at 37° C. After the required time has elapsed, the counting of the revertant colonies was carried out. All tested concentrations, positive and negative controls were run in triplicate.
# [2] = tested on: abdominal writhing induced by acetic acid; assay: Abdominal writhing assay induced by acetic acid; format: in vivo; settings: oral, mice, acetic acid 0.1N i.p. after 1 hour, writhings counted during 20 minutes
# Method: In order to evaluate the peripheral analgesic activity of the compounds, an abdominal writhing assay induced by acetic acid (Table 6) was carried out. In this assay, we could infer that compound ID has an important analgesic activity, inhibiting abdominal writhing by 66%. […] The analgesic activity may be related to the ability of these compounds to inhibit the cytokine TNFα, since it is known that this would be one of the mechanisms that explain the analgesia of molecules such as thalidomide.
# The antinociceptive profile was evaluated through the abdominal writhing assay induced by acetic acid in mice. In this assay, Swiss mice from both genders were used, weighing from 21 to 28 grams, fasted for a time period of about 8 hours. The test substance was administered orally and had, as a carrier, 5% gum arabic. After 1 hour, the administration of acetic acid 0.1N (0.1 mL/10 g weight) was performed in the peritoneal cavity of the animals. Ten minutes after the injection of acetic acid, writhings were counted during 20 minutes.
# [3] = tested on: leukocyte infiltration, peritonitis induced by thioglycolate; assay: Peritonitis assay induced by 3% thioglycolate; format: in vivo; settings: 300 μMol/Kg orally, mouse, 3% thioglycolate i.p., 4 h
# Method: In a second assay, the number of total leukocytes (10^6/mL) was evaluated in order to evaluate the ability to inhibit their infiltration in the inflammatory process.
# The mice were treated with the substances being analyzed or carrier and after 1 h of oral administration, they were simultaneously subjected to the peritonitis assay, by administering intraperitoneally 1 ml of a 3% thioglycolate solution. 4 h after the administration of thioglycolate, the peritoneal cavity was washed with 3 ml of a HANKS solution (Balanced salt solution, free of Ca^2+ and Mg^2+). Next, the peritoneal wash was analyzed and the total counting of white blood cells was made in a Newbauer's chamber under an optical microscope with a 40× objective.
smiles,measurement,setting,value
"O=C1c2ccccc2C(=O)N1c1ccc(CO[N+](=O)[O-])cc1 [ID, 4-(1,3-dioxo-1,3-dihydro-2H-isoindol-2-yl)benzyl nitrate]",mutagenicity ratio (MR),"[1]; TA 100, +S9, 0.224 μmol/plate",1.21
same,number of revertants per plate,"[1]; TA 100, +S9, 0.224 μmol/plate",157 ± 13 revertants/plate
same,mutagenicity ratio (MR),"[1]; TA 100, +S9, 0.488 μmol/plate",1.42
same,number of revertants per plate,"[1]; TA 100, +S9, 0.488 μmol/plate",184.7 ± 16 revertants/plate
same,mutagenicity ratio (MR),"[1]; TA 100, +S9, 0.896 μmol/plate",1.67
same,number of revertants per plate,"[1]; TA 100, +S9, 0.896 μmol/plate",216.7 ± 18 revertants/plate
same,mutagenicity ratio (MR),"[1]; TA 100, +S9, 1.8 μmol/plate",1.49
same,number of revertants per plate,"[1]; TA 100, +S9, 1.8 μmol/plate",192.7 ± 16 revertants/plate
same,mutagenicity ratio (MR),"[1]; TA 100, +S9, 3.58 μmol/plate",2.03
same,number of revertants per plate,"[1]; TA 100, +S9, 3.58 μmol/plate",263 ± 12.3 revertants/plate
same,mutagenicity ratio (MR),"[1]; TA 100, −S9, 0.224 μmol/plate",1.27
same,number of revertants per plate,"[1]; TA 100, −S9, 0.224 μmol/plate",228 ± 18 revertants/plate
same,mutagenicity ratio (MR),"[1]; TA 100, −S9, 0.488 μmol/plate",1.33
same,number of revertants per plate,"[1]; TA 100, −S9, 0.488 μmol/plate",239 ± 11.5 revertants/plate
same,mutagenicity ratio (MR),"[1]; TA 100, −S9, 0.896 μmol/plate",1.29
same,number of revertants per plate,"[1]; TA 100, −S9, 0.896 μmol/plate",231 ± 20.2 revertants/plate
same,mutagenicity ratio (MR),"[1]; TA 100, −S9, 1.8 μmol/plate",1.18
same,number of revertants per plate,"[1]; TA 100, −S9, 1.8 μmol/plate",212.3 ± 17 revertants/plate
same,mutagenicity ratio (MR),"[1]; TA 100, −S9, 3.58 μmol/plate",1.94
same,number of revertants per plate,"[1]; TA 100, −S9, 3.58 μmol/plate",349 ± 5.6 revertants/plate
same,Average (abdominal writhings),[2],16.2
same,Inhibition % (abdominal writhing),[2],66% and 66.03%
same,"Cell Number avg (×106), total leukocytes",[3],3.8 ×106
same,Inhibition % (leukocyte infiltrate),[3],32.14%
"O=C1c2ccccc2C(=O)N1CO[N+](=O)[O-] [Compound IA, (1,3-dioxo-1,3-dihydro-2H-isoindol-2-yl)methyl nitrate]",mutagenicity ratio (MR),"[1]; TA 100, +S9, 7.25 nmol/plate",1.19
same,number of revertants per plate,"[1]; TA 100, +S9, 7.25 nmol/plate",154 ± 14.2 revertants/plate
same,mutagenicity ratio (MR),"[1]; TA 100, +S9, 14.5 nmol/plate",1.19
same,number of revertants per plate,"[1]; TA 100, +S9, 14.5 nmol/plate",155 ± 5.9 revertants/plate
same,mutagenicity ratio (MR),"[1]; TA 100, +S9, 29 nmol/plate",1.08
same,number of revertants per plate,"[1]; TA 100, +S9, 29 nmol/plate",140.3 ± 2 revertants/plate
same,mutagenicity ratio (MR),"[1]; TA 100, +S9, 56 nmol/plate",0.97
same,number of revertants per plate,"[1]; TA 100, +S9, 56 nmol/plate",126.3 ± 8.1 revertants/plate
same,mutagenicity ratio (MR),"[1]; TA 100, +S9, 112 nmol/plate",1.03
same,number of revertants per plate,"[1]; TA 100, +S9, 112 nmol/plate",133.3 ± 11 revertants/plate
same,mutagenicity ratio (MR),"[1]; TA 100, −S9, 7.25 nmol/plate",1.03
same,number of revertants per plate,"[1]; TA 100, −S9, 7.25 nmol/plate",140.5 ± 17 revertants/plate
same,mutagenicity ratio (MR),"[1]; TA 100, −S9, 14.5 nmol/plate",1.18
same,number of revertants per plate,"[1]; TA 100, −S9, 14.5 nmol/plate",161.7 ± 11 revertants/plate
same,mutagenicity ratio (MR),"[1]; TA 100, −S9, 29 nmol/plate",0.9
same,number of revertants per plate,"[1]; TA 100, −S9, 29 nmol/plate",122.7 ± 3.06 revertants/plate
same,mutagenicity ratio (MR),"[1]; TA 100, −S9, 56 nmol/plate",1.71
same,number of revertants per plate,"[1]; TA 100, −S9, 56 nmol/plate",234 ± 39.5 revertants/plate
same,mutagenicity ratio (MR),"[1]; TA 100, −S9, 112 nmol/plate",2.45
same,number of revertants per plate,"[1]; TA 100, −S9, 112 nmol/plate",335 ± 15.7 revertants/plate
same,Average (abdominal writhings),[2],28.6
same,"Cell Number avg (×106), total leukocytes",[3],4.9 ×106
same,Inhibition % (leukocyte infiltrate),[3],12.5%
